In one assay the target is T1, human Flt-3 (Homo sapiens, UniProt P36888).
T1 construct: fused to the N-terminus of the intracellular domain (583-953 amino acids) thereof; made in house; host or cells: insect cells (baculovirus)
T1 sequence (P36888 583-953): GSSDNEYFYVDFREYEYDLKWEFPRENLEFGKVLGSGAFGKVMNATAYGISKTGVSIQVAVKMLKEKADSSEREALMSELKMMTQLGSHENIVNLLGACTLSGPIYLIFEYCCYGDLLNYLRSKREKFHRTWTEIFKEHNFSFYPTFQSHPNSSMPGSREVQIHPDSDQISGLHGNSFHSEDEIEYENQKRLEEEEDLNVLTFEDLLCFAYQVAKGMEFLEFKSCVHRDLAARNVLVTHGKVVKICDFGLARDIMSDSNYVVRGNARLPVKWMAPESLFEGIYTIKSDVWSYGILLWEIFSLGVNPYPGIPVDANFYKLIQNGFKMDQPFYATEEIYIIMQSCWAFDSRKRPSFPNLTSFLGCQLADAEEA
Description: Inhibitory activity on Flt-3 (GST-fused kinase, time-resolved fluoroimmunoassay). It is filed as biochemical. The following applies: tested compound 10 μmol/L, ATP 10 μmol/L, sixty minutes. The protocol:
Flt-3 inhibitory activities were determined in the following manner.
Flt-3 was prepared by allowing baculovirus to infect insect cells, which baculovirus expresses a protein comprising human Flt-3 with […]. […] Separately was prepared a solution containing, at final concentrations, GST-fused Flt-3 (100 μg/L), Tris-Cl (pH 7.5) (20 mmol/L), β-glycerophosphate (5 mmol/L), dithiothreitol (DTT) (1 mmol/L), Na3VO4 (0.1 mmol/L), MgCl2 (10 mmol/L), MnCl2 (10 mmol/L), ATP (10 μmol/L), bovine serum albumin (BSA) (0.1%), DMSO (0.1%), and a tested compound (10 μmol/L). The solution (each 60 μL) was placed into the wells of the plate for the determination of kinase reaction, followed by enzymatic reaction at room temperature for sixty minutes. After reacting, the reaction was stopped by the addition of 50 μL of a 25 mmol/L aqueous solution of ethylenediaminetetraacetic acid. […] The relative activity (%) of a well in which the enzyme and tested compound were added was determined by calculation with the value in a well to which the tested compound was not added being 100% and the value in a well to which the enzyme and the tested compound were not added being 0%. The Flt-3 inhibitory activity (%) of the tested compound was determined by subtracting the relative activity (%) from 100.

In the next assay the test system is K562. Description: Cytostatic activity on human chronic myeloid leukemia cell line K562 (WST-1). In kind it is cell-based. To be noted: 10 μmol/L, 72 hours, read-out: K562 (%) cytostatic rate. The protocol: (§1) The cytostatic rates of a test compound on human acute myeloid leukemia cell lines MV-4-11 and ML-1, and human chronic myeloid leukemia cell line K562 were determined in the following manner.
(§2) Each cell was cultured using Roswell Park Memorial Institute's Medium (RPMI) 1640 (Gibco, Catalog No. 11875-093) containing 10% fetal bovine serum (Gibco, Catalogue No. 10437-028) and penicillin/streptomycin (1:1) (Gibco, Catalogue No. 15140-122). Each 80 μL of the MV-4-11 cell having a concentration of 7.5×10^4 cells/mL (or the ML-1 cell or K562 cell having a concentration of 2.5×10^4 cells/mL) was inoculated to wells of a TC MICROWELL 96U plate (Nalge Nunc International, Catalogue No. 163320) and was cultured in a 5% carbon dioxide gas incubator at 37° C. for 4 hours. As a blank, only RPMI medium (80 μL) was added to a well. Each 20 μL of a solution of the test compound in dimethyl sulfoxide (DMSO) which was prepared to make the final concentration to 3.16 μmol/L or 10 μmol/L, was added to the MV-4-11 cell, ML-1 cell and K562 cell, respectively. Each 20 μL of DMSO was added to the control well and the blank well to a final concentration of 0.1%. After adding the test compound, the cells were incubated in a 5% carbon dioxide gas incubator at 37° C. for 72 hours. After adding 20 μL of WST-1 reagent {4-[3-(4-iodophenyl)-2-(4-nitrophenyl)-2H-5-tetrazolio]-1,3-benzene disulfonate sodium salt) (Roche Diagnostics K.K., Catalogue No. 1644807) diluted to 50% with RPMI medium, the cells were further incubated at 37° C. for 2 hours. Then, the absorbances at 450 nm (reference wavelength: 690 nm) were determined with a microplate spectrophotometer SPECTRA max 340PC (Molecular Devices Corporation). The relative growth (%) of a well to which the test compound had been added was determined while setting the absorbance of a well to which not the test compound but DMSO alone had been added (control) at 100% and that of a well containing RPMI medium alone at 0%. The cytostatic rate (%) of the test compound was determined by subtracting the calculated relative growth from 100.
(In general: Tetrazolium dyes change colour on reduction, which living cells bring about.)

Another assay deals with MV-4-11. Description: Cytostatic activity on human acute myeloid leukemia cell line MV-4-11 (WST-1). It is filed as cell-based. To be noted: MV4-11, 3.16 μmol/L, 72 hours, read-out: MV-4-11 (%) cytostatic rate. The method, then: as §1, §2
Another assay relates to ML-1. Description: Cytostatic activity on human acute myeloid leukemia cell line ML-1 (WST-1). It is filed as cell-based. To be noted: ML1, 3.16 μmol/L, 72 hours, read-out: ML-1 (%) cytostatic rate. The protocol:
as §1, §2

Where a name gives a salt, the structure may show the parent alone.

Turning to `CN(C)CCOc1ccc(/C=C/c2n[nH]c3ccccc23)cc1` [Compound 2, (E)-3-(2-[4-(2-dimethylaminoethoxy)phenyl]vinyl}-1H-indazole hydrochloride], the inhibition at 10 µM at human Flt-3 is 97.8%.

On to `CCOC(=O)COc1ccc(/C=C/c2n[nH]c3ccccc23)cc1` [Compound 3, ethyl (E)-4-[2-(1H-indazol-3-yl)vinyl]phenoxyacetate], for which the inhibition at 10 µM with K562 was 14%. In the assay with MV-4-11, the inhibition at 3.16 µM turned out to be 37%.

As for `OCCOc1ccc(/C=C/c2n[nH]c3ccccc23)cc1` [Compound 4, (E)-3-{2-[4-(2-hydroxyethoxy)phenyl]vinyl}-1H-indazole], the inhibition at 10 µM with K562 was 72%. Further, the inhibition at 3.16 µM in the assay with ML-1 was 27%; in the assay on MV-4-11, 91%.

With `CCN(CC)CCOc1ccc(/C=C/c2n[nH]c3ccccc23)cc1` [Compound 6, (E)-3-{2-[4-(2-diethylaminoethoxy)phenyl]vinyl}-1H-indazole hydrochloride], in the assay on K562, the inhibition at 10 µM came out at 98%. Besides, the inhibition at 3.16 µM came out at 89% in the assay with ML-1 and 97% with MV-4-11.

With `CC(C)N(CCOc1ccc(/C=C/c2n[nH]c3ccccc23)cc1)C(C)C` [Compound 7, (E)-3-{2-[4-(2-diisopropylaminoethoxy)phenyl]vinyl}-1H-indazole hydrochloride], in the assay on K562, the inhibition at 10 µM stood at 93%. The inhibition at 3.16 µM is 89% in the assay on ML-1 and 97% in the assay with MV-4-11.

`COc1cc(/C=C/c2n[nH]c3ccccc23)ccc1OCCN1CCOCC1` [Compound 30, (E)-3-{2-[3-methoxy-4-(2-morpholinoethoxy)phenyl]vinyl}-1H-indazole hydrochloride] had an inhibition at 10 µM at human Flt-3 of 98.1%.

Take `Nc1cc(/C=C/c2n[nH]c3ccccc23)ccc1OCCN1CCOCC1` [Compound 38, (E)-3-{2-[3-amino-4-(2-morpholinoethoxy)phenyl]vinyl}-1H-indazole]: the inhibition at 10 µM against human Flt-3 amounted to 99.2%.

On human Flt-3, `CS(=O)(=O)Nc1cc(/C=C/c2n[nH]c3ccccc23)ccc1OCCN1CCOCC1` [Compound 60, (E)-N-{5-[2-(1H-Indazol-3-yl)vinyl]-2-(2-morpholinoethoxy)phenyl}methanesulfonamide] gave an inhibition at 10 µM of 90.2%.

`O=C(NCCN1CCOCC1)c1ccc(/C=C/c2n[nH]c3ccccc23)cc1` [Compound 61, (E)-N-(2-morpholinoethyl)-4-[2-(1H-indazol-3-yl)vinyl]benzamide] yielded an inhibition at 10 µM on human Flt-3 of 91%.

`CCN(CC)C(=O)c1ccc(/C=C/c2n[nH]c3ccccc23)cc1` [Compound 62, (E)-N,N-Diethyl-4-[2-(1H-indazol-3-yl)vinyl]benzamide hydrochloride] showed an inhibition at 10 µM against human Flt-3 of 93.7%.

`CC(C)(C)OC(=O)N1CCN(C(=O)c2ccc(/C=C/c3n[nH]c4ccccc34)cc2)CC1` [Compound 63, (E)-4-{4-[2-(1H-indazol-3-yl)vinyl]benzoyl)piperazine-1-carboxylic acid 1,1-dimethylethylester] had an inhibition at 10 µM against human Flt-3 of 97.4%.

Consider `O=C(c1ccc(/C=C/c2n[nH]c3ccccc23)cc1)N1CCNCC1` [Compound 64, (E)-1-{4-[2-(1H-indazol-3-yl)vinyl]benzoyl}piperazine], for which the inhibition at 10 µM on human Flt-3 is 94.2%.

For the compound `O=CN1CCN(C(=O)c2ccc(/C=C/c3n[nH]c4ccccc34)cc2)CC1` [Compound 65, (E)-4-{4-[2-(1H-indazol-3-yl)vinyl]benzoyl}piperazine-1-carbaldehyde], the inhibition at 10 µM against human Flt-3 was 94.4%.

`CCOC(=O)N1CCN(C(=O)c2ccc(/C=C/c3n[nH]c4ccccc34)cc2)CC1` [Compound 66, (E)-1-{4-[2-(1H-indazol-3-yl)vinyl]benzoyl}-4-ethoxycarbonylpiperazine] gave an inhibition at 10 µM against human Flt-3 of 95.7%.

`O=C(c1ccncc1)N1CCN(C(=O)c2ccc(/C=C/c3n[nH]c4ccccc34)cc2)CC1` [Compound 67, (E)-1-{4-[2-(1H-indazol-3-yl)vinyl]benzoyl}-4-(isonicotinoyl)piperazine] gave an inhibition at 10 µM against human Flt-3 of 96.4%.

Compound `CCN(CC)CCNC(=O)c1ccc(/C=C/c2n[nH]c3ccccc23)cc1` [Compound 68, (E)-N-[2-(diethylamino)ethyl]-4-[2-(1H-indazol-3-yl)vinyl]benzamide] returned an inhibition at 10 µM against human Flt-3 of 94.4%.

As for `COCC(=O)N1CCN(C(=O)c2ccc(/C=C/c3n[nH]c4ccccc34)cc2)CC1` [Compound 69, (E)-4-methoxyacetyl-1-{4-[2-(1H-indazol-3-yl)vinyl]benzoyl}piperazine], the inhibition at 10 µM on human Flt-3 was 95.8%.

With `O=C1CN(C(=O)c2ccc(/C=C/c3n[nH]c4ccccc34)cc2)CCN1` [Compound 70, (E)-4-{4-[2-(1H-indazol-3-yl)vinyl]benzoyl}piperadin-2-one], at human Flt-3, the “Inhibitory activity on Flt-3 (%)” value turned out to be 93.7%.

As for `NC1CCN(C(=O)c2ccc(/C=C/c3n[nH]c4ccccc34)cc2)C1` (centres unmarked) [Compound 71, (E)-1-{4-[2-(1H-indazol-3-yl)vinyl]benzoyl}-3-aminopyrrolidine dihydrochloride], the inhibition at 10 µM against human Flt-3 was determined as 95.2%.

For `O=C(c1ccc(/C=C/c2n[nH]c3ccccc23)cc1)N1CCN(C(=O)[C@H]2CCNC2)CC1` [Compound 72, (S)-(E)-1-{4-[2-(1H-indazol-3-yl)vinyl]benzoyl}-4-(pyrrolidin-3-ylcarbonyl)piperazine dihydrochloride], at human Flt-3, the inhibition at 10 µM was 95%.

In the case of `CC(C)(N)C(=O)N1CCN(C(=O)c2ccc(/C=C/c3n[nH]c4ccccc34)cc2)CC1.Cl.Cl` [Compound 74, (E)-4-(2-amino-2-methylpropionyl)-1-{4-[2-(1H-indazol-3-yl)vinyl]benzoyl}piperazine dihydrochrolide], on human Flt-3, the “Inhibitory activity on Flt-3 (%)” value was 97.0%.

As to `CC(=O)N(C)CC(=O)N1CCN(C(=O)c2ccc(/C=C/c3n[nH]c4ccccc34)cc2)CC1` [Compound 75, (E)-4-(N-acetyl-N-methylaminoacetyl)-1-(4-[2-(1H-indazol-3-yl)vinyl]benzoyl}piperazine], at human Flt-3, the inhibition at 10 µM stood at 95.1%.

In the case of `O=C(c1ccc(/C=C/c2n[nH]c3ccccc23)cc1)N1CCN(C(=O)[C@@H]2CCCN2)CC1` [Compound 76, (S)-(E)-4-[(pyrrolidin-2-yl)carbonyl]-1-{4-[2-(1H-indazol-3-yl)vinyl]benzoyl}piperazine], the inhibition at 10 µM against human Flt-3 stood at 93.9%.

For the compound `CN1CCC(C(=O)N2CCN(C(=O)c3ccc(/C=C/c4n[nH]c5ccccc45)cc3)CC2)CC1` [Compound 77, (E)-4-[(1-methylpiperidin-4-yl)carbonyl]-1-(4-[2-(1H-indazol-3-yl)vinyl]benzoyl)piperazine], the inhibition at 10 µM against human Flt-3 is 96.3%.

The compound `NC1CCN(C(=O)c2ccc(/C=C/c3n[nH]c4ccccc34)cc2)CC1` [Compound 78, (E)-1-{4-[2-(1H-indazol-3-yl)vinyl]benzoyl}-4-aminopiperidine] gave an inhibition at 10 µM at human Flt-3 of 95.7%.

Source of the values: US20060281789A1, “Protein kinase inhibitors” (KYOWA HAKKO KOGYO CO., LTD, priority 2003, published 2006).
